The values below come from US9718828B2 (MERCK SHARP & DOHME CORP., priority 2011, dated 2017).

Some results are limits rather than exact numbers.

hBTK (full-length BTK, 6HIS-tag cleaved), sequence (Q06187 whole entry): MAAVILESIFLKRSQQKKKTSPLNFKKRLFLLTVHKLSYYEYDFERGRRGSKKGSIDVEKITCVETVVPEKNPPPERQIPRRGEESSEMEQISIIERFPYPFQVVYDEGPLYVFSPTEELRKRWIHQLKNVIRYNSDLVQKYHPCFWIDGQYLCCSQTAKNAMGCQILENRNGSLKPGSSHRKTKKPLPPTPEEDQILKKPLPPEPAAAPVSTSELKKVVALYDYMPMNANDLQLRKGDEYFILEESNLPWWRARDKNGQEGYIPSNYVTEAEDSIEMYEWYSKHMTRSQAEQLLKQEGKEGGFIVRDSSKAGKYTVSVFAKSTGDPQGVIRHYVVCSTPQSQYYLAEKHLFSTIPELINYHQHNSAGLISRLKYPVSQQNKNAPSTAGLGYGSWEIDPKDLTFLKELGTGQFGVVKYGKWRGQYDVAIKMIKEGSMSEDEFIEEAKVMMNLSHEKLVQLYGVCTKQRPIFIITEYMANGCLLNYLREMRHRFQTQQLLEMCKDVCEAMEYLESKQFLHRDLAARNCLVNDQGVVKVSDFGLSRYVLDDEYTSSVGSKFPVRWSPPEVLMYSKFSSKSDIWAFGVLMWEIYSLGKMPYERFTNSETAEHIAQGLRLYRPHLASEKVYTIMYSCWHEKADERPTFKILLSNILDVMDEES

One experiment addresses hBTK (full-length BTK, 6HIS-tag cleaved) (Homo sapiens (Human), UniProt Q06187). Nature of the experiment: BTK enzymatic activity, IMAP-FP assay (Assay Method B). As to conditions: IMAP-FP, 1.05 nM hBTK, 5 μM ATP; class 100-1000 is given as ≧100 nM-<1 μM; read-out: IC50 Btk activity values - Assay Method B. It counts as biochemical. On the procedure:
BTK enzymatic activity was determined in an IMAP-FP assay (Immobilized Metal ion Affinity-based fluorescence Polarization; Molecular Devices). […] Phosphorylation reactions were allowed to proceed for 120 minutes and were immediately quenched by the addition of 40 μL IMAP detection beads resuspended in IMAP progressive binding buffer (beads were diluted 1:600 in 75% and 25% progressive binding buffer A and B, respectively; Molecular Devices). Plates were read on Packard microplate reader after 60 minutes binding equilibration using Fluorescence Polarization protocol.
For orientation: IC50 means the concentration that gives 50% inhibition. As to `Cc1cc(-c2nc([C@@H]3CCCN(C(=O)C4(C)COC4)C3)n3ccnc(N)c23)ccc1C(=O)Nc1cc(C(F)(F)F)ccn1` [Example 474, 4-(8-amino-3-{(3R)-1-[(3-methyloxetan-3-yl)carbonyl]piperidin-3-yl}imidazo[1,5-a]pyrazin-1-yl)-2-methyl-N-[4-(trifluoromethyl)pyridin-2-yl]benzamide], the concentration for half-maximal inhibition (IC50) fell in the range of 10 to 100 nM.
As to `COCCC(=O)N1CCC[C@@H](c2nc(-c3ccc(C(=O)Nc4ccccn4)cc3O)c3c(N)nccn23)C1` [Example 475, 4-{8-amino-3-[(3R)-1-(3-methoxypropanoyl)piperidin-3-yl]imidazo[1,5-a]pyrazin-1-yl}-3-hydroxy-N-pyridin-2-ylbenzamide], the IC50 fell in the range of 10 to 100 nM.
On to `Cc1cc(C(=O)Nc2cc(C(F)(F)F)ccn2)ccc1-c1nc([C@@H]2CCCN(C(=O)C3(C)COC3)C2)n2ccnc(N)c12` [Example 479, 4-(8-amino-3-{(3R)-1-[(3-methyloxetan-3-yl)carbonyl]piperidin-3-yl}imidazo[1,5-a]pyrazin-1-yl)-3-methyl-N-[4-(trifluoromethyl)pyridin-2-yl]benzamide], for which the IC50 lay within 10 to 100 nM.
Turning to `Cn1cc(CN2CCO[C@@H](c3nc(-c4ccc(C(=O)Nc5cc(C(F)(F)F)ccn5)cc4)c4c(N)nccn34)C2)cn1` [Example 495, 4-(8-amino-3-{(2R)-4-[(1-methyl-1H-pyrazol-4-yl)methyl]morpholin-2-yl}imidazo[1,5-a]pyrazin-1-yl)-N-[4-(trifluoromethyl)pyridin-2-yl]benzamide], the IC50 was in the range of 10 to 100 nM.
For `CCN1CCO[C@@H](c2nc(-c3ccc(C(=O)Nc4cc(C(F)(F)F)ccn4)cc3)c3c(N)nccn23)C1` [Example 496, 4-{8-amino-3-[(2R)-4-ethylmorpholin-2-yl]imidazo[1,5-a]pyrazin-1-yl}-N-[4-(trifluoromethyl)pyridin-2-yl]benzamide], the IC50 fell in the range of 10 to 100 nM.
On the same count and under the same terms, the value for `CN1CCO[C@@H](c2nc(-c3ccc(C(=O)Nc4cc(C(F)(F)F)ccn4)cc3)c3c(N)nccn23)C1` [Example 497, 4-{8-amino-3-[(2R)-4-methylmorpholin-2-yl]imidazo[1,5-a]pyrazin-1-yl}-N-[4-(trifluoromethyl)pyridin-2-yl]benzamide] was 10 to 100 nM; that for `Cn1cc(CN2CCO[C@@H](c3nc(-c4ccc(C(=O)Nc5cc(C6CC6)ccn5)cc4)c4c(N)nccn34)C2)cn1` [Example 498, 4-(8-amino-3-{(2R)-4-[(1-methyl-1H-pyrazol-4-yl)methyl]morpholin-2-yl}imidazo[1,5-a]pyrazin-1-yl)-N-(4-cyclopropylpyridin-2-yl)benzamide] was 10 to 100 nM.
As to `Nc1nccn2c([C@H]3CN(C(=O)C4(N)CCC4)CCO3)nc(-c3ccc(C(=O)Nc4cc(C(F)(F)F)ccn4)cc3)c12` [Example 499, 4-(8-amino-3-{(2R)-4-[(1-aminocyclobutyl)carbonyl]morpholin-2-yl}imidazo[1,5-a]pyrazin-1-yl)-N-[4-(trifluoromethyl)pyridin-2-yl]benzamide], the half-maximal inhibitory concentration (IC50) is 10 to 100 nM.
On the same count and under the same terms, the value for `COCC1(C(=O)N2CCO[C@@H](c3nc(-c4ccc(C(=O)Nc5cc(C(F)(F)F)ccn5)cc4)c4c(N)nccn34)C2)CCC1` [Example 500, 4-{8-amino-3-[(2R)-4-{[1-(methoxymethyl)cyclobutyl]carbonyl}morpholin-2-yl]imidazo[1,5-a]pyrazin-1-yl}-N-[4-(trifluoromethyl)pyridin-2-yl]benzamide] was 10 to 100 nM.
As to `CN1CCN(C)[C@@H](c2nc(-c3ccc(C(=O)Nc4cc(C(F)(F)F)ccn4)cc3)c3c(N)nccn23)C1` [Example 565, 4-{8-amino-3-[(2R)-1,4-dimethylpiperazin-2-yl]imidazo[1,5-a]pyrazin-1-yl}-N-[4-(trifluoromethyl)pyridin-2-yl]benzamide], the half-maximal inhibitory concentration (IC50) was 100 to 1000 nM.
As for `Cn1cc(CN2CCN[C@@H](c3nc(-c4ccc(C(=O)Nc5cc(C(F)(F)F)ccn5)cc4)c4c(N)nccn34)C2)cn1` [Example 566, 4-(8-amino-3-{(2R)-4-[(1-methyl-1H-pyrazol-4-yl)methyl]piperazin-2-yl}imidazo[1,5-a]pyrazin-1-yl)-N-[4-(trifluoromethyl)pyridin-2-yl]benzamide], the IC50 fell in the range of 100 to 1000 nM.
For `Cn1cc(CN2CCS(=O)(=O)C(c3nc(-c4ccc(C(=O)Nc5cc(C(F)(F)F)ccn5)cc4)c4c(N)nccn34)C2)cn1` (stereo not drawn) [Example 569, 4-(8-amino-3-{4-[(1-methyl-1H-pyrazol-4-yl)methyl]-1,1-dioxidothiomorpholin-2-yl}imidazo[1,5-a]pyrazin-1-yl)-N-[4-(trifluoromethyl)pyridin-2-yl]benzamide], the half-maximal inhibitory concentration (IC50) lay within 100 to 1000 nM.
Turning to `CN1CCS(=O)(=O)C(c2nc(-c3ccc(C(=O)Nc4cc(C(F)(F)F)ccn4)cc3)c3c(N)nccn23)C1` (stereo not drawn) [Example 570, 4-[8-amino-3-(4-methyl-1,1-dioxidothiomorpholin-2-yl)imidazo[1,5-a]pyrazin-1-yl]-N-[4-(trifluoromethyl)pyridin-2-yl]benzamide], the IC50 lay in the range of 100 to 1000 nM.
In the case of `Nc1ncc(Br)n2c([C@@H]3CCCN(C(=O)C4CC4)C3)nc(-c3ccc(C(=O)Nc4cc(C(F)(F)F)ccn4)cc3)c12` [Example 577, (R)-4-(8-amino-5-bromo-3-(1-(cyclopropanecarbonyl)piperidin-3-yl)imidazo[1,5-a]pyrazin-1-yl)-N-(4-(trifluoromethyl)pyridin-2-yl)benzamide], the half-inhibitory concentration (IC50) was less than 10 nM.

Still in this experiment, the particulars now being: IMAP-FP, 1.05 nM hBTK, 5 μM ATP; read-out: IC50 Btk activity values - Assay Method B.
As to `CC1(C(=O)N2CCN[C@@H](c3nc(-c4ccc(C(=O)Nc5cc(C(F)(F)F)ccn5)cc4)c4c(N)nccn34)C2)CC1` [Example 567, 4-(8-amino-3-{(2R)-4-[(1-methylcyclopropyl)carbonyl]piperazin-2-yl}imidazo[1,5-a]pyrazin-1-yl)-N-[4-(trifluoromethyl)pyridin-2-yl]benzamide], the IC50 is no less than 1000 nM.
